Source: patent US7407794B2, “Biological control of plant diseases” (The Horticulture and Food Research Institute of New Zealand …, priority 2001, dated 2008)

System: Botrytis cinerea
Test: Necrotic leaf disc bioassay with interrupted wet period (laboratory)
Format: cell-based
Conditions: Table 2, necrotic kiwifruit leaf tissues, repeat bioassay
Protocol: Discs (dia. 21 mm) were cut from mature unsprayed grape or kiwifruit leaves selected at random and placed between sheets of cardboard. The discs were gently dried at 40° C. for approximately 9 hours and then washed under running water for 10 minutes to remove any soluble nutrients. The leaf discs were then blot dried once more on sterile paper towels, dried at 40° C. for 6 hours, then sealed in plastic specimen jars, prior to sterilization by gamma-irradiation (4Mrad).
Isolates were maintained on oatmeal agar (30 g finely ground oatmeal plus 20 g agar per litre of water) and incubated for 2 to 4 weeks at 20° C. illuminated according to a 12 hours day/night cycle. Fungal propagules were washed from the sporulating agar plates using sterile 0.01% (v/v) TWEEN®80 (polyoxyethylenesorbitan monooleate) in distilled water. […]
High humidity incubation was interrupted by transferring the leaf disks from the humidity chambers to open petri dishes containing 2 layers of sterile dry (Whatman) filter disks. […] The area of leaf disk tissue with B. cinerea sporulation was assessed visually. […]
Prior to analysis of variance, all data were arcsin transformed using an angular transformation to stabilise the variance and LSD values were calculated for purposes of mean separation […]

## CC(C)NC(=O)N1CC(=O)N(c2cc(Cl)cc(Cl)c2)C1=O [iprodione]
  % coverage of necrotic leaf tissue by B. cinerea conidiophores: 20%
  Antagonist efficacy, percentage reduction of B. cinerea conidiophores compared to the B. cinerea control treatment: 20%
